Assay results reported in US5045566A, “Novel imidate insecticides” (ICI Americas Inc., priority 1989, dated 1991).

What was measured:
Type in all cases: in vivo
[1] = test system: Tobacco Budworm [Heliothis virescens (Fabricius)] eggs; assay: Tobacco budworm eggs (TBW-E); details: percent in solution; 2-day old eggs
Outline: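 Step 1: dip 2-day old egg patches in acetone test solutions (top concentration 0.1%). Step 2: hold in dishes with rearing medium at 78° F. Step 3: record mortality after control hatch and feeding.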

[2] = test system: Black Bean Aphid [Aphis fabae (Scop.)]; assay: Black bean aphid spray test on nasturtium (BBA), 48 hours; details: percent of test compound in sprayed solution
Method: The compounds in Tables 1 and 2 above were tested for insecticidal activity using the following testing procedures. LC50 values, based on the results of these tests and calculated according to dosage-mortality curves, are expressed in Table 3.
Black Bean Aphid [Aphis fabae (Scop.)]:
Nasturtium plants (Tropaeolum sp.) approximately 5 cm tall, were transplanted into sandy loam soil in small cups and infested with 25-50 black bean aphids of mixed ages. Twenty-four hours later they were sprayed to the point of runoff with 50-50 acetone-water solutions of the test compounds. Treated plants were held in the greenhouse and mortality was recorded after 48 hours. Test concentrations ranged from 0.05% downward. The LC-50 value is expressed below in Table 3 under the heading "BBA" in terms of percent of the test compound in the sprayed solution.

[3] = test system: Housefly [Musca domestica]; assay: Housefly contact mortality in dishes (HF), 48 hours; details: μg of test compound per 25 female flies
Outline: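 Residual contact test: acetone dilution, 0.01% peanut oil spreader, solvent evaporated; 25 ♀ flies (1-2 d old) per cage; sugar-water plug; 48 h mortality read. LC50 in μg/25 female flies, from dose-mortality curves; top dose 100 μg/25 flies.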

[4] = test system: Cabbage Looper [Trichoplusia ni (Hubner)]; assay: Cabbage looper leaf dip (CL), 3-5 days; details: percent in solution, second-instar larvae
Outline: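 Squash cotyledons dipped in test solution (acetone-water 50-50, ≤0.1%), dried, offered to 5 second-instar larvae; mortality after 3-5 days gives LC50.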

Compound: CC(C)C(=Nc1ccc(C#N)c(F)c1)OCc1cccc(Oc2ccc(F)cc2)c1 [Compound 222]
- LC50 TBW E (eggs) [1]: > 0.1%
- LC50 BBA [2]: 0.01%
- LC50 HF [3]: 32 µg
- LC50 CL [4]: 0.0015%

Compound: COc1ccc(Oc2cccc(COC(=Nc3ccc(Cl)c(Cl)c3)C(C)C)c2)cc1 [Compound 223]
- LC50 TBW E (eggs) [1]: > 0.1%
- LC50 BBA [2]: 0.003%
- LC50 HF [3]: 43 µg
- LC50 CL [4]: 0.008%

Compound: CC(C)(Cl)C(=Nc1ccc(F)c(Cl)c1)OCc1cccc(Oc2ccc(F)cc2)c1 [Compound 224]
- LC50 TBW E (eggs) [1]: > 0.1%
- LC50 BBA [2]: 0.05%
- LC50 HF [3]: > 100 µg
- LC50 CL [4]: 0.001%

Compound: CC(C)C(=Nc1ccc(C#N)cc1)OCc1cccc(Oc2ccc(F)cc2)c1 [Compound 227]
- LC50 TBW E (eggs) [1]: 0.1%
- LC50 BBA [2]: 0.01%
- LC50 HF [3]: 10 µg
- LC50 CL [4]: 0.0015%

Compound: CC(C)C(=Nc1cccc(Br)c1)OCc1cccc(Oc2ccc(F)cc2)c1 [Compound 229]
- LC50 TBW E (eggs) [1]: > 0.1%
- LC50 BBA [2]: 0.006%
- LC50 HF [3]: 20 µg
- LC50 CL [4]: 0.0005%

Compound: Cc1ccc(Oc2cccc(COC(=Nc3ccc(F)cc3)C(C)C)c2)cc1 [Compound 231]
- LC50 TBW E (eggs) [1]: > 0.1%
- LC50 BBA [2]: 0.01%
- LC50 HF [3]: > 100 µg
- LC50 CL [4]: 0.003%

Compound: CC(C)C(=Nc1c(F)c(F)c(F)c(F)c1F)OCc1cccc(Oc2ccc(F)cc2F)c1 [Compound 232]
- LC50 TBW E (eggs) [1]: > 0.1%
- LC50 BBA [2]: > 0.05%
- LC50 HF [3]: > 100 µg
- LC50 CL [4]: 0.004%

Compound: CC(C)C(=Nc1ccc(C#N)c(F)c1)OCc1cccc(Oc2ccccc2)c1 [Compound 233]
- LC50 TBW E (eggs) [1]: 0.09%
- LC50 BBA [2]: 0.01%
- LC50 HF [3]: 10 µg
- LC50 CL [4]: 0.0017%

Compound: CC(C)C(=Nc1ccc(C(C)(C)C)cc1)OCc1cccc(Oc2ccc(F)cc2)c1 [Compound 235]
- LC50 TBW E (eggs) [1]: > 0.1%
- LC50 BBA [2]: 0.01%
- LC50 HF [3]: > 100 µg
- LC50 CL [4]: 0.004%

Compound: Cc1cc(N=C(OCc2cccc(Oc3ccc(F)cc3)c2)C(C)C)ccc1F [Compound 236]
- LC50 TBW E (eggs) [1]: 0.06%
- LC50 BBA [2]: 0.003%
- LC50 HF [3]: 7 µg
- LC50 CL [4]: 0.0018%

Compound: CC(C)C(=Nc1ccc(Cl)cc1)OCc1cccc(Oc2ccc(Br)cc2)c1 [Compound 237]
- LC50 TBW E (eggs) [1]: 0.075%
- LC50 BBA [2]: 0.01%
- LC50 HF [3]: 50 µg
- LC50 CL [4]: 0.0006%

Compound: CC(C)C(=Nc1ccc2c(c1)OC(C)(C)O2)OCc1cccc(Oc2ccc(Cl)cc2)c1 [Compound 241]
- LC50 TBW E (eggs) [1]: > 0.1%
- LC50 BBA [2]: < 0.05%
- LC50 HF [3]: > 100 µg
- LC50 CL [4]: 0.0004%

Compound: CC(C)C(=Nc1ccc2c(c1)CCO2)OCc1cccc(Oc2ccccc2)c1 [Compound 243]
- LC50 TBW E (eggs) [1]: > 0.1%
- LC50 BBA [2]: 0.01%
- LC50 HF [3]: 9 µg
- LC50 CL [4]: 0.005%

Compound: CC(C)C(=Nc1ccc2c(c1)OCO2)OCc1cccc(Oc2ccc(C(F)(F)F)cc2)c1 [Compound 246]
- LC50 TBW E (eggs) [1]: > 0.1%
- LC50 BBA [2]: > 0.05%
- LC50 HF [3]: 60 µg
- LC50 CL [4]: 0.004%

Compound: CC(C)C(=Nc1ccc(F)c(Cl)c1)OCc1cccc(Oc2ccc(C(F)(F)F)cc2)c1 [Compound 247]
- LC50 TBW E (eggs) [1]: > 0.1%
- LC50 BBA [2]: > 0.05%
- LC50 HF [3]: > 100 µg
- LC50 CL [4]: 0.009%

Compound: COc1cc(N=C(OCc2cccc(Oc3ccccc3)c2)C(C)C)cc(OC)c1OC [Compound 248]
- LC50 TBW E (eggs) [1]: > 0.1%
- LC50 BBA [2]: > 0.05%
- LC50 HF [3]: 40 µg
- LC50 CL [4]: 0.02%

Compound: Cc1cccc(N=C(OCc2cccc(Oc3ccccc3)c2)C(C)C)c1C [Compound 249]
- LC50 TBW E (eggs) [1]: 0.035%
- LC50 BBA [2]: 0.0003%
- LC50 HF [3]: 36 µg
- LC50 CL [4]: 0.0025%

Compound: Cc1ccc(C)c(N=C(OCc2cccc(Oc3ccccc3)c2)C(C)C)c1 [Compound 250]
- LC50 TBW E (eggs) [1]: 0.038%
- LC50 BBA [2]: 0.0006%
- LC50 HF [3]: 38 µg
- LC50 CL [4]: 0.004%

Compound: CC(C)C(=Nc1ccc(Br)c(Br)c1)OCc1cccc(Oc2ccc(F)cc2)c1 [Compound 251]
- LC50 TBW E (eggs) [1]: 0.06%
- LC50 BBA [2]: 0.001%
- LC50 HF [3]: 25 µg
- LC50 CL [4]: 0.0005%

Compound: CC(C)C(=Nc1ccc(Br)c(Br)c1)OCc1cccc(Oc2ccccc2)c1 [Compound 252]
- LC50 TBW E (eggs) [1]: 0.04%
- LC50 BBA [2]: 0.002%
- LC50 HF [3]: 34 µg
- LC50 CL [4]: 0.0035%

Compound: CC(C)C(=Nc1cccc(Cl)c1)OCc1cccc(Oc2ccc(Br)cc2)c1 [Compound 260]
- LC50 TBW E (eggs) [1]: > 0.1%
- LC50 BBA [2]: 0.006%
- LC50 HF [3]: 22 µg
- LC50 CL [4]: 0.00075%

Compound: CCC(C)C(=Nc1ccc(F)c(Cl)c1)OCc1ccc(F)c(Oc2ccccc2)c1 (stereo not drawn) [Compound 261]
- LC50 TBW E (eggs) [1]: 0.05%
- LC50 BBA [2]: 0.002%
- LC50 HF [3]: 24 µg
- LC50 CL [4]: 0.001%

Compound: Cc1ccc(Cl)cc1N=C(OCc1cccc(Oc2ccccc2)c1)C(C)C [Compound 263]
- LC50 TBW E (eggs) [1]: > 0.1%
- LC50 BBA [2]: > 0.05%
- LC50 HF [3]: > 100 µg
- LC50 CL [4]: 0.05%

Compound: COc1ccc(Cl)cc1N=C(OCc1cccc(Oc2ccccc2)c1)C(C)C [Compound 264]
- LC50 TBW E (eggs) [1]: > 0.1%
- LC50 BBA [2]: > 0.05%
- LC50 HF [3]: > 100 µg
- LC50 CL [4]: 0.03%

Compound: CC(C)C(=Nc1ccc(F)cc1)OCc1cccc(Oc2ccc(F)c(F)c2)c1 [Compound 265]
- LC50 TBW E (eggs) [1]: 0.07%
- LC50 BBA [2]: > 0.05%
- LC50 HF [3]: 10 µg
- LC50 CL [4]: 0.00025%

Compound: CC(C)C(=Nc1cccc(SC(F)(F)F)c1)OCc1cccc(Oc2ccc(F)cc2)c1 [Compound 272]
- LC50 TBW E (eggs) [1]: > 0.1%
- LC50 BBA [2]: > 0.05%
- LC50 HF [3]: > 100 µg
- LC50 CL [4]: 0.0024%

Compound: CC(C)C(=Nc1ccc2c(c1)OCO2)OCc1cc(Oc2ccc(F)cc2)ccc1Cl [Compound 274]
- LC50 TBW E (eggs) [1]: > 0.1%
- LC50 BBA [2]: > 0.05%
- LC50 HF [3]: > 100 µg
- LC50 CL [4]: 0.1%

Compound: CC(C)C(=Nc1ccc(F)c(Cl)c1)OCc1cc(F)cc(Oc2ccc(F)cc2)c1 [Compound 327]
- LC50 TBW E (eggs) [1]: > 0.1%
- LC50 BBA [2]: > 0.05%
- LC50 HF [3]: > 100 µg
- LC50 CL [4]: 0.005%

Compound: CC(C)CC(=Nc1ccc(C(C)C)cc1)OCc1cccc(Oc2ccc(F)cc2)c1 [Compound 329]
- LC50 TBW E (eggs) [1]: > 0.1%
- LC50 BBA [2]: > 0.05%
- LC50 HF [3]: 7 µg
- LC50 CL [4]: 0.033%

Compound: CC(C)C(=Nc1ccc(F)c(Cl)c1)OCc1cccc(Oc2ccc(I)cc2)c1 [Compound 447]
- LC50 TBW E (eggs) [1]: > 0.1%
- LC50 BBA [2]: > 0.05%
- LC50 HF [3]: 33 µg
- LC50 CL [4]: 0.0009%

Compound: CC(C)C(=Nc1ccc(F)c(Cl)c1)OCc1ccc(Cl)c(Oc2ccc(F)cc2)c1 [Compound 448]
- LC50 TBW E (eggs) [1]: 0.03%
- LC50 BBA [2]: > 0.05%
- LC50 HF [3]: 16 µg
- LC50 CL [4]: 0.003%

Compound: Fc1c(F)c(F)c(COC(=Nc2cccc(Cl)c2Cl)C(Cl)Cl)c(F)c1F [Compound 454]
- LC50 TBW E (eggs) [1]: > 0.1%
- LC50 BBA [2]: > 0.05%
- LC50 HF [3]: > 100 µg
- LC50 CL [4]: 0.03%

Compound: Cc1c(COC(=Nc2ccc(Cl)cc2)C(C)C)cccc1-c1ccccc1 [Compound 455]
- LC50 TBW E (eggs) [1]: > 0.1%
- LC50 BBA [2]: 0.01%
- LC50 HF [3]: > 100 µg
- LC50 CL [4]: 0.0025%
